Active and inactive are the calls of the source.
Key:
[1] = BJeHLT cell viability loss – BJeHLT cells, dry powder, counter-screen for Ras selective lethality project, dose response (AID 493052); format: functional, cell-based; details: Homo sapiens
[2] = DRD BJ cell killing, Ras synthetic lethality – DRD BJ fibroblasts, HRASV12, dry powder, dose response (AID 493049); format: functional, cell-based
[3] = HRAS-V12 fibroblast viability reduction – cell-based, Alamar Blue, dry powder, Ras selective lethality project, primary screen (AID 493045); format: functional; details: BJeLR
[4] = BJeH cell viability loss – BJeH cells, dry powder, counter-screen for Ras selective lethality project, dose response (AID 493054); format: functional, cell-based
[5] = biological target: C-C chemokine receptor type 6 (Homo sapiens, UniProt P51684); assay: antagonism of CCR6 beta-arrestin recruitment – cell-based, luminescent beta-arrestin readout, dose response (AID 504728); format: functional
Beta-galactosidase [6] = biological target: T1, Beta-galactosidase (Escherichia coli, UniProt Q8VNN2); assay: detection-enzyme interference by beta-gal modulators – biochemical, E. coli enzyme, set 3, artefact control for CCR6 antagonist project, dose response (AID 504712); format: functional
[7] = biological target: Heat shock protein HSP 90-alpha (Homo sapiens, UniProt P07900); format: functional, organism-based
Vero = assay: viability of Vero cells under compound – cytotoxicity control for flavivirus capping enzyme inhibitors (AID 588742); format: functional; details: Chlorocebus sabaeus
Genome polyprotein = Genome polyprotein (dengue virus type 2, UniProt P29990); assay: flavivirus cap methylation enzyme inhibition – biochemical, confirmation dose response, primary screen (AID 588689); format: functional
[8] = viability loss in HeLa cells – cytotoxicity control for MgcRacGAP inhibitor project, dose response (AID 624300); format: functional
[9] = biological target: T2, Rac GTPase-activating protein 1 (Homo sapiens, UniProt Q9H0H5); assay: blockers of MgcRacGAP-driven Rac1 GTP hydrolysis – biochemical, ADP Hunter fluorescence, primary and confirmatory, confirmation (AID 624330); format: functional
T2 sequence (Q9H0H5 whole entry): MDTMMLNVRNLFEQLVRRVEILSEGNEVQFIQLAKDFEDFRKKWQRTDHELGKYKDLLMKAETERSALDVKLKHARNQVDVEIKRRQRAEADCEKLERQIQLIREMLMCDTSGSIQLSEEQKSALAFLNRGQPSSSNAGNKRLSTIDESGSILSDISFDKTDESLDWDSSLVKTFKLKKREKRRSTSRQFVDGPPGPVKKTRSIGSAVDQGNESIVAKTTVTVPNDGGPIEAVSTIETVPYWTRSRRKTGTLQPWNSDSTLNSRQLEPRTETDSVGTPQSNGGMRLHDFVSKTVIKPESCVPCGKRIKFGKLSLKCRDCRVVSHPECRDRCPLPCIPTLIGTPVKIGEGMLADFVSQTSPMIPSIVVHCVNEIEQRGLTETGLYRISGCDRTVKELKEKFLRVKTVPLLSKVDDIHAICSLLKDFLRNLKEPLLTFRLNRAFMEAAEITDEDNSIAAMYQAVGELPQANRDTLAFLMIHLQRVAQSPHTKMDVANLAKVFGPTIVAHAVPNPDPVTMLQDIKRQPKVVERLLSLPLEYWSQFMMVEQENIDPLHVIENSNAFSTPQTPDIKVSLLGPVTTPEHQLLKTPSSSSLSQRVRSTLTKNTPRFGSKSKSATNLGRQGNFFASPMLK

Paired box protein Pax-8 = Paired box protein Pax-8 (Homo sapiens, UniProt Q06710); assay: PAX8 transcriptional activity inhibition in RMG-I – RMG-I cells, luciferase, cherry-pick, dose response (AID 687027); format: functional, cell-based;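 also: luciferase reporter driven by Pax8 target thyroperoxidase promoter measured by SteadyGlo luminescence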
[10] = viability loss in HepG2 hepatoma cells – cell-based, cherry-picks, set 5, cytotoxicity control, dose response (AID 1053118); format: functional
[11] = viability loss in HEK293 kidney cells – cell-based, cherry-picks, set 5, cytotoxicity control, dose response (AID 1053117); format: functional
[12] = viability loss in A549 lung cancer cells – cell-based, cherry-picks, […], cytotoxicity control, dose response (AID 1053119); format: functional
[13] = general cell-killing toxicity readout – plate reader, dry powder samples, cytotoxicity control for PAX8 inhibitor project, dose response (AID 743021); format: functional, cell-based
[14] = blockers of FN fibrillogenesis by fibroblasts – AH1F cells, Alexa488-FN fluorescence, cherry-picks, dose response (AID 1035475); format: functional, cell-based
Protein Tat = Protein Tat (Human immunodeficiency virus type 1 group M subtype B (isolate HXB2)(HIV-1), UniProt P04608); format: functional;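 also: tat binding to TAR RNA read out by fluorescence polarization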
[15] = viability loss in THP-1 monocytes – THP-1 cells, cytotoxicity control for Vif-APOBEC3G degradation inhibitor project, dose response (AID 1117359); format: functional; details: THP-1
Coagulation factor XII = biological target: T3, Coagulation factor XII (Homo sapiens, UniProt P00748); assay: activated coagulation factor XII inhibitor potency, concentration-effect curve, cell-free (AID 716); format: functional
T3 sequence (P00748 whole entry): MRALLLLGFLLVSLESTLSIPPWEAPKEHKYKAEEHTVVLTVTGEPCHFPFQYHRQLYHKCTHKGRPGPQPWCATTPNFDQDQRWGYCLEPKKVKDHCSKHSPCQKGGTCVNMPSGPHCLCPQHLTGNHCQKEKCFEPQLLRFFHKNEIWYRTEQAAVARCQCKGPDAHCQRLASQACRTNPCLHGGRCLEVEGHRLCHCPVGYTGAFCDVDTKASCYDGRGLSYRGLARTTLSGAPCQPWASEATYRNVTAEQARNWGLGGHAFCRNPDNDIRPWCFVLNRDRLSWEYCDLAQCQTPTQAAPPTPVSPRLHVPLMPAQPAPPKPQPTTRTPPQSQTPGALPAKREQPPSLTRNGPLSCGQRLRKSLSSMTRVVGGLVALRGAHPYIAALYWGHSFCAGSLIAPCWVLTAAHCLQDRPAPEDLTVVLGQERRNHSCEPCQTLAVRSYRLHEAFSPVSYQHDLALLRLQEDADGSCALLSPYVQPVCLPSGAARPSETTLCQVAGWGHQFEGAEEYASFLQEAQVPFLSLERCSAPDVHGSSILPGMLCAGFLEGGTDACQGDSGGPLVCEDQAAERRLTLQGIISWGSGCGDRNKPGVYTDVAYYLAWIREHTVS

Cytochrome P450 2C19 = Cytochrome P450 2C19 (Homo sapiens, UniProt P33261); assay: Cytochrome panel assay with activity outcomes. Panel member name: p450-cyp2c19 Compounds with AC50 equal or less than 10 uM are considered active; format: functional; details: read-out: AC50
Cytochrome P450 2D6 = Cytochrome P450 2D6 (Homo sapiens, UniProt P10635);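 also: CYP2D6 member of a cytochrome P450 panel assay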
[16] = biological target: T4, Eukaryotic translation initiation factor 4H (Homo sapiens, UniProt Q15056); assay: eIF4H binding inhibition – biochemical, uHTS, fluorescence polarization, translation initiation inhibitor project, primary screen (AID 2012)
[17] = biological target: T5, Polyadenylate-binding protein 1 (Homo sapiens, UniProt P11940); assay: blockers of PABP interaction with poly(A) – biochemical, fluorescence polarization, […] (AID 2014)
[18] = biological target: T4, Eukaryotic translation initiation factor 4H; assay: inhibitors of translation initiation factor eIF4H – SAR follow-up (AID 435011); format: functional
[19] = biological target: T5, Polyadenylate-binding protein 1; assay: PABP inhibition in translation initiation, SAR follow-up (AID 435018); format: functional
[20] = biological target: T6, Carboxy-terminal domain RNA polymerase II polypeptide A small phosphatase 1 (Homo sapiens, UniProt Q9GZU7); assay: CTDSP1 inhibitors, concentration-response, biochemical, absorbance readout, ultra-high-throughput screen actives (AID 540297); format: functional
T6 sequence (Q9GZU7 whole entry): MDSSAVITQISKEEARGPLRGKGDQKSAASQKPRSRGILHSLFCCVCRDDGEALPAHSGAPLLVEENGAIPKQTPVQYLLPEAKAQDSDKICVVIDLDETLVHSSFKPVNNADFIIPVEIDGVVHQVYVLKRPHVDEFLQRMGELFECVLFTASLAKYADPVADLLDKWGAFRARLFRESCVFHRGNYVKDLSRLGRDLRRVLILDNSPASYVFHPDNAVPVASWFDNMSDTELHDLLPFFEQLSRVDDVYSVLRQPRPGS

[21] = biological target: E3 ubiquitin-protein ligase Mdm2 (Homo sapiens, UniProt Q00987); assay: MDM2-luc reporter signal enhancers, multi-concentration potency testing, MDM2 ubiquitin-protein ligase inhibitor program, whole-cell format, luminescence detection, 384-well microplate (AID 1394); format: functional;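 also: MDM2 E3 inhibitors raise luminescence so EC50 is for signal enhancement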
Beta-galactosidase [22] = biological target: T1, Beta-galactosidase; assay: PubChem AID 485352; format: functional
[23] = Luminescence-based dose response cell-based high throughput screening assay for cytotoxic compounds using the IEC-6 intestinal epithelial cell line. [Related pubchem assays: 1858 (Summary AID.), 1825 (Counterscreen.), 1907 (Confirmation screen.)]; format: functional
[24] = biological target: T7, Type-1 angiotensin II receptor (Homo sapiens, UniProt P30556); assay: antagonism of angiotensin II type 1 receptor – cell-based, uHTS hits, selectivity assay for APJ receptor antagonist project, dose response (AID 463214); format: functional;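 also: antagonist potency against angiotensin II stimulated AT1 response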
T7 sequence (P30556 whole entry): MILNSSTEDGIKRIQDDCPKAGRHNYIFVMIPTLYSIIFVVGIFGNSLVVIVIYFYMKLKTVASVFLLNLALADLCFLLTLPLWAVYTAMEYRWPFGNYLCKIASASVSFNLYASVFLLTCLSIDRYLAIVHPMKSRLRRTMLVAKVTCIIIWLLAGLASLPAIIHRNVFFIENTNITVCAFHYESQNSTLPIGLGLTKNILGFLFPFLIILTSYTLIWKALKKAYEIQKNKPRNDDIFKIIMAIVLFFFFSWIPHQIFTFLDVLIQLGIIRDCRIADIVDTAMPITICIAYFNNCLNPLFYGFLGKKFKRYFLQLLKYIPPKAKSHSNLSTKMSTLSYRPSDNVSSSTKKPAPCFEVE

[25] = biological target: T8, Kappa-type opioid receptor (Homo sapiens, UniProt P41145); format: functional
Beta-galactosidase [26] = biological target: T1, Beta-galactosidase; format: functional
[27] = biological target: T8, Kappa-type opioid receptor; format: functional; remark: listed apart in the source
[28] = HEK-293T viability loss after treatment – luminescence, T-cell screen hits, cytotoxicity control for TCR NF-kB inhibitor project, dose response (AID 489026); format: functional, cell-based;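 also: cells exposed to compound about 14 hours before the viability readout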

T1 sequence (Q8VNN2 whole entry): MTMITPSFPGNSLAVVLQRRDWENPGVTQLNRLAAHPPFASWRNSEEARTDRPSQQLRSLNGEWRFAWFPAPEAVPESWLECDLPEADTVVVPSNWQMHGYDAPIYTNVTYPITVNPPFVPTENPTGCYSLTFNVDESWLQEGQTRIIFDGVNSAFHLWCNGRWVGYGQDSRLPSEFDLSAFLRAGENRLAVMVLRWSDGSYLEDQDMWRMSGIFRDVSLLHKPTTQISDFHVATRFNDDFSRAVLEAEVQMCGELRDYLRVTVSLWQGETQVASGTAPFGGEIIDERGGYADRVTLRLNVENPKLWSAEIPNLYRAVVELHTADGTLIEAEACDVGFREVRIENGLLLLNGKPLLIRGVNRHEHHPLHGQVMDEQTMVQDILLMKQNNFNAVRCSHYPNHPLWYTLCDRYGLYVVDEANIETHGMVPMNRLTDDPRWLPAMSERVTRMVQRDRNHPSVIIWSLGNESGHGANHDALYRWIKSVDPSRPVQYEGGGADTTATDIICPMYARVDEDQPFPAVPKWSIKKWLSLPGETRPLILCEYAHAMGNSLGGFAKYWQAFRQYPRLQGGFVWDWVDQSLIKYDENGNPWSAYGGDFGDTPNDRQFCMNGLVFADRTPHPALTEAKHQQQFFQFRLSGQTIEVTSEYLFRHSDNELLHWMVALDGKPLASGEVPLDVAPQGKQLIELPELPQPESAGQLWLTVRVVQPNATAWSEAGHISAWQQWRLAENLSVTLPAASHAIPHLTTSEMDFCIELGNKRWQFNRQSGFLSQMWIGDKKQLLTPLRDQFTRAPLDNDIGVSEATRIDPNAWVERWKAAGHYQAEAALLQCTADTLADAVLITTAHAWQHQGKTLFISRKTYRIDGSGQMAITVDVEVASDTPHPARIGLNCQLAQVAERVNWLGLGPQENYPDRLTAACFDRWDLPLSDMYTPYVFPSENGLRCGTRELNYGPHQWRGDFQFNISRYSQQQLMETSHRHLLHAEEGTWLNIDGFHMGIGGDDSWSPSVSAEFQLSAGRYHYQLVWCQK
T8 sequence (P41145 whole entry): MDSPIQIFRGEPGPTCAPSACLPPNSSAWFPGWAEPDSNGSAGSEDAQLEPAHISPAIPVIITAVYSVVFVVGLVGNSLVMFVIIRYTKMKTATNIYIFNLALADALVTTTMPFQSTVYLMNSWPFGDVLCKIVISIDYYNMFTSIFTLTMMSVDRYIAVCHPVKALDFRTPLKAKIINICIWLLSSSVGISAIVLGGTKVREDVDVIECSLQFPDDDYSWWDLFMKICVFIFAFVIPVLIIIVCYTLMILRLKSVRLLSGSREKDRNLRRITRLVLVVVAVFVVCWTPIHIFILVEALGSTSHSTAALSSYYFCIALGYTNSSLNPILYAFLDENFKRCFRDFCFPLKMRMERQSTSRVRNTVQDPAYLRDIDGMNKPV
T5 sequence (P11940 whole entry): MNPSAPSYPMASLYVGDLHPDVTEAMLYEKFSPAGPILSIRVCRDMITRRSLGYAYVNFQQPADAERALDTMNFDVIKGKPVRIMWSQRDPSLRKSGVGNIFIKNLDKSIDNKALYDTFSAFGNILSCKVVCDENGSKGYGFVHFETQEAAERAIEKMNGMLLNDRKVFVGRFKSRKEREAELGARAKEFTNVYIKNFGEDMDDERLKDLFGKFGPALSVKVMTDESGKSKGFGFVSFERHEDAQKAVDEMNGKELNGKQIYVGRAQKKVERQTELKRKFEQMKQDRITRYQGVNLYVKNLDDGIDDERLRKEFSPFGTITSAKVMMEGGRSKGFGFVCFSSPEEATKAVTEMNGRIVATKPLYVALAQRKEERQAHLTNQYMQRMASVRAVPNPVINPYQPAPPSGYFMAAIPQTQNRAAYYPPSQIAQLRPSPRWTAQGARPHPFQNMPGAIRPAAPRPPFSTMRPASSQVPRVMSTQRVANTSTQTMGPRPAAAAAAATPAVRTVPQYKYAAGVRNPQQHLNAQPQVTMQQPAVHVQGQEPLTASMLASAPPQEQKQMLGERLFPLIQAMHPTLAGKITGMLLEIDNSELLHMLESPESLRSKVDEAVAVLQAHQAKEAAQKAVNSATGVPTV
Chain of Cytochrome P450 2D6 (P10635 whole entry): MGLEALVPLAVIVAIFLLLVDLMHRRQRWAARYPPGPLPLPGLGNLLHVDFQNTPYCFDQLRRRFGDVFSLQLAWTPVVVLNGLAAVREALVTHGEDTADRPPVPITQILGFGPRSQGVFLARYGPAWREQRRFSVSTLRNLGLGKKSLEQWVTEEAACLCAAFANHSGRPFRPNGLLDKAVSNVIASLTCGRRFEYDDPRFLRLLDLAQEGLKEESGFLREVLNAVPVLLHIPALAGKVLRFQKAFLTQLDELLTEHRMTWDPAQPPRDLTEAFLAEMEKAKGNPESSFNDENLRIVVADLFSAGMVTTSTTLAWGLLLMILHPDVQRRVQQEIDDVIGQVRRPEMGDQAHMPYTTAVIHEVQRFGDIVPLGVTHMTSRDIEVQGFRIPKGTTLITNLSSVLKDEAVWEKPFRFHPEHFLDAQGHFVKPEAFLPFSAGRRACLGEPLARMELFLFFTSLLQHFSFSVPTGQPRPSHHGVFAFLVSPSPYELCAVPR
Chain of Paired box protein Pax-8 (Q06710 whole entry): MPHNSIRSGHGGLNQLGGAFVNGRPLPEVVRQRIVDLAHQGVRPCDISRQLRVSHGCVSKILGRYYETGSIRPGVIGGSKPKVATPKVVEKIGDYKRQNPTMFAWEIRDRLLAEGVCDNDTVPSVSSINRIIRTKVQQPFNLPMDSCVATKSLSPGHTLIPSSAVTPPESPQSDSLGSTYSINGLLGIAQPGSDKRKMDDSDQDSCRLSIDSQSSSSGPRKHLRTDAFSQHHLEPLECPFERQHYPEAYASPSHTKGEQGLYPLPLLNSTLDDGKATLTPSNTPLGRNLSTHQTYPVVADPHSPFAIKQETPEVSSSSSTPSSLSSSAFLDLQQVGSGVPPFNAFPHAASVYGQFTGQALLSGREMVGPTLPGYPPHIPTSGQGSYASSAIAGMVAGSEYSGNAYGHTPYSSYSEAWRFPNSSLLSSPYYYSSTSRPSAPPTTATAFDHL
Chain of Protein Tat (P04608 whole entry): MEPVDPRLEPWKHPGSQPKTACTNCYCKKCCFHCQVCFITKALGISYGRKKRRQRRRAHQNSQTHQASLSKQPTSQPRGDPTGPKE
Chain of Genome polyprotein (P29990 2492-3391 limits assumed): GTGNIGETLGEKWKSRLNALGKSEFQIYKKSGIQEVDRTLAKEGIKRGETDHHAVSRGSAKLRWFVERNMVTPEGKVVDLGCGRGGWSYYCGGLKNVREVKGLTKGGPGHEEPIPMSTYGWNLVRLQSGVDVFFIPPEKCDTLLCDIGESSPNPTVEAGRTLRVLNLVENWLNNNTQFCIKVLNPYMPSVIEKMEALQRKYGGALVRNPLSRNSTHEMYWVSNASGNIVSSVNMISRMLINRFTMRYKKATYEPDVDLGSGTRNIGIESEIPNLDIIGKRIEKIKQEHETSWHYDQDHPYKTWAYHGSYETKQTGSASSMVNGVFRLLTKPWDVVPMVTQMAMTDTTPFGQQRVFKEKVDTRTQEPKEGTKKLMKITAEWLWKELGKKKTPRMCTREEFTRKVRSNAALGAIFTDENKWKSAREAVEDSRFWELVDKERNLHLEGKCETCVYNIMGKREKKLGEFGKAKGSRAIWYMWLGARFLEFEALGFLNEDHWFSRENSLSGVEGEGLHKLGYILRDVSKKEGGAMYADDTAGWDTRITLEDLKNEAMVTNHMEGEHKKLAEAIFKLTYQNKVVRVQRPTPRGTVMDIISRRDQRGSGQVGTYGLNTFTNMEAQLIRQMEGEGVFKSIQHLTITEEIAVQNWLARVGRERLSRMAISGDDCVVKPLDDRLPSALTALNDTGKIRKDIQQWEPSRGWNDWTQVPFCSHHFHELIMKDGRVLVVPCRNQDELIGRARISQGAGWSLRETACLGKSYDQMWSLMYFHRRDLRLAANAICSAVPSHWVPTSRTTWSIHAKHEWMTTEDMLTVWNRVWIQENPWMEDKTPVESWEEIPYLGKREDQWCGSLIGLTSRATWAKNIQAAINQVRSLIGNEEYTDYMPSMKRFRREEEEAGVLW
Chain of E3 ubiquitin-protein ligase Mdm2 (Q00987 whole entry): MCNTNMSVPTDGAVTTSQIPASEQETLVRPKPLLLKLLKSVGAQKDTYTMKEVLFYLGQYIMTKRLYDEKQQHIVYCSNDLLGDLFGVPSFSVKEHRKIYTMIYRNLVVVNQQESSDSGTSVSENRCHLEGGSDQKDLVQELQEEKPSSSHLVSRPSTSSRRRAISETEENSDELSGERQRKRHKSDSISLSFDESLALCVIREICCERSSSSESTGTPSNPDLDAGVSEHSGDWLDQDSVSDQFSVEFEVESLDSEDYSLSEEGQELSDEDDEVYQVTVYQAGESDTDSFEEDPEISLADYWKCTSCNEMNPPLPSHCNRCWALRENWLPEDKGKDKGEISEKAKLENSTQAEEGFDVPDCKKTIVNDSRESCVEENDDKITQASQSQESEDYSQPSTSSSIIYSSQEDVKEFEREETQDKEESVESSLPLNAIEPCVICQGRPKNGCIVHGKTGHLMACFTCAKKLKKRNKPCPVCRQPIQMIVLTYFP

For `COc1ccc(N(C(=O)CCl)C(C(=O)NCCc2ccccc2)c2nc(C)cs2)cc1Cl` (stereo not given), the AC50 [1] was 19.8 µM (active), the AC50 [2] was 8.54 µM (active) and the AC50 [3] was 8.26 µM (active). The AC50 [4] was 32.7 µM (active).

For `CC1OC(CC(=O)O)CC2=C1C(=O)c1c(O)cccc1C2=O` (stereo not given) [NANAOMYCIN], the IC50 [5] was > 66.6 µM (inactive), the IC50 (Beta-galactosidase [6]) was > 66.6 µM (inactive) and the AC50 [7] was 0.262 µM (active). For the same compound, the CC50 (Vero) was 0.72 µM (active), the IC50 (Genome polyprotein) was 5.04 µM (active) and the CC50 [8] was 5.86 µM (active). The IC50 [9] was 76.4 µM (active), the AC50 (Paired box protein Pax-8) was 0.469 µM (active) and the AC50 [10] was 0.37 µM (active). The AC50 [11] was 2.5 µM (active), the AC50 [12] was 0.485 µM (active) and the AC50 [13] was 3.45 µM (active). The AC50 [14] was 0.779 µM (active), the IC50 (Protein Tat) was > 100 µM (active) and the CC50 [15] was 0.69 µM (active).

In the case of `CCS(=O)(=O)N1CCC(C(=O)NCc2ccc(F)cc2Cl)CC1`, the IC50 (Coagulation factor XII) is reported as > 50 µM (inactive), the AC50 (Cytochrome P450 2C19) is reported as 39.8 µM (inconclusive) and the AC50 (Cytochrome P450 2D6) is reported as 14.1 µM (inconclusive).

With `CC(C)c1ccc(OC(=O)c2cccc(S(=O)(=O)N3CCN(C)CC3)c2)cc1` the IC50 [16] was > 100 µM (inactive), the IC50 [17] was 6.93 µM (active) and the IC50 [18] was 27.6 µM (active). The IC50 [19] was 15.7 µM (active) and the IC50 [20] was 11.6 µM (active).

With `COc1ccc(C[S+]([O-])/C(Cl)=C(/Cl)C(=O)Nc2ccc(OC)nc2)cc1` (stereo not given) the EC50 [21] was 0.56 µM (active), the EC50 (Beta-galactosidase [22]) was > 40 µM (inactive) and the IC50 [23] was 1.65 µM (active). The IC50 [24] was 2.92 µM (active), the IC50 [25] was 5.22 µM (active) and the EC50 (Beta-galactosidase [26]) was > 31.5 µM (inactive). For the same compound, the IC50 [27] was 8.26 µM and the IC50 [28] was 31.5 µM (inactive).
